Patent publication US11000033B2, “Ketone or oxime compound, and herbicide” (NISSAN CHEMICAL CORPORATION, priority 2014, dated 2021)

What was measured:
Type in all cases: in vivo
Monochoria vaginalis = test: Test Example 1: herbicidal activity, application before weed generation in submerged conditions (symbol C); settings: application herbicide amount 320 g/ha
Summary of the method: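 Application before weed emergence: an aqueous dilution of the emulsion formulation was poured onto the surface of 4 cm-deep floodwater on the day of sowing. Effect was judged after 3 weeks (greenhouse, 25–30 °C).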

Scirpus juncoides = test: Test Example 2: herbicidal activity, application during weed generation in submerged conditions (symbol B); settings: Table 23; application herbicide amount 320 g/ha; grade 0-5 by criteria of Test Example 1
Summary of the method: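 Seeds sown in flooded alluvial soil (4 cm water) were grown in a 25-30° C greenhouse. At the one- to two-leaf stage, diluted emulsion of compound was applied to the water surface at a predetermined rate. Effect was scored 3 weeks later.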

Digitaria ciliaris = test: Test Example 4: herbicidal effect by soil treatment (symbol F); settings: application herbicide amount 320 g/ha
Summary of the method: (§1)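 Seeds were sown in sterilized diluvial soil, covered with about 1.5 cm of soil, and the soil surface was sprayed with a water-diluted emulsion of the compound at a predetermined rate. Plants grew in a greenhouse at 25° C. to 30° C.; effects were scored visually 3 weeks after application.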

[1] = system: Echinochloa crus-galli var. crus-galli; test: Test Example 4: herbicidal effect by soil treatment (symbol H); settings: application herbicide amount 320 g/ha
Summary of the method: as §1

Stellaria media = test: Test Example 4: herbicidal effect by soil treatment (symbol P); settings: application herbicide amount 320 g/ha
Summary of the method: as §1

beet = test: Test Example 4: effect on crop by soil treatment (symbol f); settings: application herbicide amount 320 g/ha
Summary of the method: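 Soil-treatment setup: crop and weed seeds were spot-sown into sterilized diluvial soil, then buried beneath approximately 1.5 cm of it, and the boxes were housed in a 25–30° C. greenhouse.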

[2] = system: Echinochloa crus-galli var. crus-galli; test: Test Example 5: herbicidal effect by foliage application, plastic box (symbol H); settings: 320 g/ha, 3 weeks after application
Summary of the method: (§2)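 Post-emergence spray; diluvial soil (sterilized), ~1.5 cm seed cover; greenhouse 25–30° C; 14-day-old plants; water-diluted emulsion at predetermined dose; visual score at 3 wk post-treatment.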

Alopecurus myosuroides = test: Test Example 5: herbicidal effect by foliage application, plastic box (symbol J); settings: 320 g/ha, 3 weeks after application
Summary of the method: as §2

Apera spica-venti = test: Test Example 5: herbicidal effect by foliage application, plastic box (symbol L); settings: 320 g/ha, 3 weeks after application
Summary of the method: as §2

Abutilon theophrasti = test: Test Example 5: herbicidal effect by foliage application, plastic box (symbol M); settings: 320 g/ha, 3 weeks after application
Summary of the method: as §2

rice plant = test: Test Example 5: effect on crop by foliage application, plastic box (symbol b); settings: 320 g/ha, 3 weeks after application
Summary of the method: (§3)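 Crop and weed seeds sown in spots in sterilized diluvial soil in plastic boxes and covered with about 1.5 cm soil. Plants raised in a greenhouse at 25° C. to 30° C. for foliar application.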

rapeseed = test: Test Example 5: effect on crop by foliage application, plastic box (symbol g); settings: 320 g/ha, 3 weeks after application
Summary of the method: as §3

| SMILES | Herbicidal effect grade, C: Monochoria vaginalis (Monochoria vaginalis) | Herbicidal effect grade, B: Scirpus juncoides (Scirpus juncoides) | F: Digitaria ciliaris, herbicidal effect grade (Digitaria ciliaris) | H: Echinochloa crus-galli var. crus-galli, herbicidal effect grade [1] | P: Stellaria media, herbicidal effect grade (Stellaria media) | f: beet, effect on crop grade (beet) | H: Echinochloa crus-galli var. crus-galli, herbicidal effect grade [2] | J: Alopecurus myosuroides, herbicidal effect grade (Alopecurus myosuroides) | L: Apera spica-venti, herbicidal effect grade (Apera spica-venti) | M: Abutilon theophrasti, herbicidal effect grade (Abutilon theophrasti) | b: directly sowed rice plant, effect on crop grade (rice plant) | g: rapeseed, effect on crop grade (rapeseed) |
| --- | --- | --- | --- | --- | --- | --- | --- | --- | --- | --- | --- | --- |
| CON=C(C)CC1CC(O)=C(c2c(C)cc(C#CC3CC3)cc2C)C1=O (mixture of isomers) [6-010] | 1 (Herbicidal ratio of 5% or higher and lower than 20%) | 3 (Herbicidal ratio of 40% or higher and lower than 70%) | 5 (Herbicidal ratio of 90% or more (almost completely withered)) | 5 (Herbicidal ratio of 90% or more (almost completely withered)) | 0 (Herbicidal ratio of 5% or lower (almost no effect)) | 0 (Herbicidal ratio of 5% or lower (almost no effect)) | 5 (Herbicidal ratio of 90% or more (almost completely withered)) | 5 (Herbicidal ratio of 90% or more (almost completely withered)) | 5 (Herbicidal ratio of 90% or more (almost completely withered)) | 0 (Herbicidal ratio of 5% or lower (almost no effect)) | 5 (Herbicidal ratio of 90% or more (almost completely withered)) | 0 (Herbicidal ratio of 5% or lower (almost no effect)) |
| CON=C(C)CC1CC(O)=C(c2c(C)cc(-c3ccc(C(F)(F)F)cc3)cc2C)C1=O (mixture of isomers) [6-016] | 0 (Herbicidal ratio of 5% or lower (almost no effect)) | 0 (Herbicidal ratio of 5% or lower (almost no effect)) | 5 (Herbicidal ratio of 90% or more (almost completely withered)) | 4 (Herbicidal ratio of 70% or higher and lower than 90%) | 0 (Herbicidal ratio of 5% or lower (almost no effect)) | 0 (Herbicidal ratio of 5% or lower (almost no effect)) | 5 (Herbicidal ratio of 90% or more (almost completely withered)) | 1 (Herbicidal ratio of 5% or higher and lower than 20%) | 5 (Herbicidal ratio of 90% or more (almost completely withered)) | 0 (Herbicidal ratio of 5% or lower (almost no effect)) | 5 (Herbicidal ratio of 90% or more (almost completely withered)) | 1 (Herbicidal ratio of 5% or higher and lower than 20%) |
| CON=C(C)CC1CC(O)=C(c2c(C)cc(-c3ccc(OC)cc3)cc2C)C1=O (mixture of isomers) [6-017] | 0 (Herbicidal ratio of 5% or lower (almost no effect)) | 3 (Herbicidal ratio of 40% or higher and lower than 70%) | 5 (Herbicidal ratio of 90% or more (almost completely withered)) | 3 (Herbicidal ratio of 40% or higher and lower than 70%) | 0 (Herbicidal ratio of 5% or lower (almost no effect)) | 0 (Herbicidal ratio of 5% or lower (almost no effect)) | 5 (Herbicidal ratio of 90% or more (almost completely withered)) | 5 (Herbicidal ratio of 90% or more (almost completely withered)) | 5 (Herbicidal ratio of 90% or more (almost completely withered)) | 0 (Herbicidal ratio of 5% or lower (almost no effect)) | 5 (Herbicidal ratio of 90% or more (almost completely withered)) | 3 (Herbicidal ratio of 40% or higher and lower than 70%) |
| CON=C(C)CC1CC(O)=C(c2c(C)cc(-c3ccc(C)cc3)cc2C)C1=O (mixture of isomers) [6-018] | 4 (Herbicidal ratio of 70% or higher and lower than 90%) | 4 (Herbicidal ratio of 70% or higher and lower than 90%) | 5 (Herbicidal ratio of 90% or more (almost completely withered)) | 5 (Herbicidal ratio of 90% or more (almost completely withered)) | 0 (Herbicidal ratio of 5% or lower (almost no effect)) | 0 (Herbicidal ratio of 5% or lower (almost no effect)) | 5 (Herbicidal ratio of 90% or more (almost completely withered)) | 5 (Herbicidal ratio of 90% or more (almost completely withered)) | 5 (Herbicidal ratio of 90% or more (almost completely withered)) | 0 (Herbicidal ratio of 5% or lower (almost no effect)) | 5 (Herbicidal ratio of 90% or more (almost completely withered)) | 3 (Herbicidal ratio of 40% or higher and lower than 70%) |
| CON=C(C)CC1CC(O)=C(c2c(C)cc(C#CCO)cc2C)C1=O (mixture of isomers) [6-025] | 0 (Herbicidal ratio of 5% or lower (almost no effect)) | 0 (Herbicidal ratio of 5% or lower (almost no effect)) | 3 (Herbicidal ratio of 40% or higher and lower than 70%) | 0 (Herbicidal ratio of 5% or lower (almost no effect)) | 0 (Herbicidal ratio of 5% or lower (almost no effect)) | 0 (Herbicidal ratio of 5% or lower (almost no effect)) | 5 (Herbicidal ratio of 90% or more (almost completely withered)) | 5 (Herbicidal ratio of 90% or more (almost completely withered)) | 5 (Herbicidal ratio of 90% or more (almost completely withered)) | 0 (Herbicidal ratio of 5% or lower (almost no effect)) | 5 (Herbicidal ratio of 90% or more (almost completely withered)) | 3 (Herbicidal ratio of 40% or higher and lower than 70%) |
| C=Cc1cc(C)c(C2=C(O)CC(CC(C)=NOC)C2=O)c(C)c1 (mixture of isomers) [6-031] | 0 (Herbicidal ratio of 5% or lower (almost no effect)) | 0 (Herbicidal ratio of 5% or lower (almost no effect)) | 0 (Herbicidal ratio of 5% or lower (almost no effect)) | 0 (Herbicidal ratio of 5% or lower (almost no effect)) | 0 (Herbicidal ratio of 5% or lower (almost no effect)) | 0 (Herbicidal ratio of 5% or lower (almost no effect)) | 5 (Herbicidal ratio of 90% or more (almost completely withered)) | 5 (Herbicidal ratio of 90% or more (almost completely withered)) | 4 (Herbicidal ratio of 70% or higher and lower than 90%) | 2 (Herbicidal ratio of 20% or higher and lower than 40%) | 5 (Herbicidal ratio of 90% or more (almost completely withered)) | 3 (Herbicidal ratio of 40% or higher and lower than 70%) |
| CON=C(C)CC1CC(O)=C(c2c(C)cc(-c3cccc(Cl)c3)cc2C)C1=O (mixture of isomers) [6-034] | 4 (Herbicidal ratio of 70% or higher and lower than 90%) | 5 (Herbicidal ratio of 90% or more (almost completely withered)) | 5 (Herbicidal ratio of 90% or more (almost completely withered)) | 5 (Herbicidal ratio of 90% or more (almost completely withered)) | 0 (Herbicidal ratio of 5% or lower (almost no effect)) | 0 (Herbicidal ratio of 5% or lower (almost no effect)) | 5 (Herbicidal ratio of 90% or more (almost completely withered)) | 5 (Herbicidal ratio of 90% or more (almost completely withered)) | 5 (Herbicidal ratio of 90% or more (almost completely withered)) | 3 (Herbicidal ratio of 40% or higher and lower than 70%) | 5 (Herbicidal ratio of 90% or more (almost completely withered)) | 4 (Herbicidal ratio of 70% or higher and lower than 90%) |
